Like-named read-outs stand apart in the source and are kept apart here.
How the values were obtained:
[1] = Pharmacokinetics of A-002; conditions: in vivo
stable CVD population = conditions: cited from earlier work
serum LDL = conditions: for % of subjects with [LDL] < 50 mg/dl / % of subjects with [LDL] < 70 mg/dl / % of subjects with [LDL] < 100 mg/dl / % change in mean [LDL] from baseline / Change in mean [LDL] from baseline: ITT population
serum IL-6 = experiment: Serum IL-6 levels in human ACS subjects; type: in vivo
Experimental: (§1) 625 adult (18 years of age or older) unstable human subjects who had recently experienced an index ACS event (UA, NSTEMI, or STEMI) were randomized to receive placebo or A-002 at 500 mg once daily via oral administration in a double-blinded manner. A-002 was delivered in the form of two 250 mg tablets. In addition, all subjects received atorvastatin at 80 mg once daily via oral administration of a single tablet.
(§2) Subjects were randomized within 96 hours of hospital admission for an index ACS event, or within 96 hours of index ACS event diagnosis if already hospitalized. Prior to randomization, subjects were screened for pertinent medical history, and baseline levels of LDL and hs-CRP were measured. Baseline sPLA2 levels were also measured in a random subset of subjects. Percutaneous revascularization, if required or planned for a particular subject, was performed prior to randomization.
(§3) Subjects were excluded if they were receiving statin therapy at maximum recommended or tolerated dosage (i.e., 40-80 mg QD for atorvastatin, fluvastatin, lovastatin, pravastatin, or simvastatin, or 20-40 mg QD rosuvastatin) at the time of the index ACS event. During the trial, subjects were prevented from using any lipid-lowering therapy other than 80 mg atorvastatin and/or A-002.
(§4) For purposes of this study, MACEs included all-cause mortality, non-fatal MI, documented UA requiring urgent hospitalization, revascularization occurring 60 days or more after the initial index ACS event, and non-fatal stroke. Subjects were evaluated at 2, 4, 8, 12, 16, 20, and 24 weeks after randomization and monthly thereafter until study completion. Each evaluation included measurement of serum LDL levels and recordation of any MACEs or less severe adverse events occurring since the previous evaluation. In addition, certain evaluation periods included measurement of one or more of hs-CRP, sPLA2, IL-6, and/or other biomarker levels, vital signs, weight, and/or waist circumference. […] This final evaluation included at least a complete physical examination, a 12-lead ECG reading, measurement of LDL, hs-CRP, sPLA2, and IL-6 levels, and recordation of any MACEs during the study period.

Human ACS Subjects = experiment: Major adverse cardiac events (MACEs) in human ACS subjects; type: in vivo
Experimental: as §1, §2, §3, §4

serum sPLA2 = experiment: Serum sPLA2 levels in human ACS subjects; type: in vivo; conditions: ITT population
Experimental: as §1, §2, §3, §4

LDL and CRP levels = experiment: Reaching composite target LDL and hs-CRP levels in human ACS subjects; type: in vivo; conditions: ITT population
Experimental: as §1, §2, §3, §4

[2] = test system: subjects that had recently experienced an ACS event; conditions: 80 mg atorvastatin; subjects that had recently experienced an ACS event (Schwartz 2001); cited from earlier work
serum hs-CRP = experiment: Serum hs-CRP levels in human ACS subjects; type: in vivo
Experimental: as §1, §2, §3, §4

[3] = ITT population, cumulative at 16 weeks

CCc1c(C(=O)C(N)=O)c2c(OCC(=O)OC)cccc2n1Cc1ccccc1 [A-002, [[3-(2-Amino-1,2-dioxoethyl)-2-ethyl-1-(phenylmethyl)-1H-indol-4-yl]oxy]acetic acid methyl ester]
absorption and conversion to active molecule [1]: rapidly absorbed and hydrolyzed to the active A-001 molecule
effect on cholesterol levels (stable CVD population; once- or twice-daily administration, stable CVD population, diabetic and high baseline LDL-C subpopulations): decreases total cholesterol, LDL-C, total LDL-C particle, and small LDL-C particle levels
effect on inflammatory markers (stable CVD population; stable populations): decreases levels of various inflammatory markers such as hs-CRP and sPLA2

CC(C)c1c(C(=O)Nc2ccccc2)c(-c2ccccc2)c(-c2ccc(F)cc2)n1CC[C@@H](O)C[C@@H](O)CC(=O)O [Placebo (atorvastatin only), atorvastatin]
% of subjects with [LDL] < 50 mg/dl (serum LDL; Baseline): 1.1%
% of subjects with [LDL] < 70 mg/dl (serum LDL; Baseline): 5.2%
% of subjects with [LDL] < 100 mg/dl (serum LDL; Baseline): 24.1%
% change in mean [LDL] from baseline (serum LDL; Week 2): −41.7%
% of subjects with [LDL] < 50 mg/dl (serum LDL; Week 2): 21.9%
% of subjects with [LDL] < 70 mg/dl (serum LDL; Week 2): 54.6%
% of subjects with [LDL] < 100 mg/dl (serum LDL; Week 2): 89.1%
Change in mean [LDL] from baseline (serum LDL; Week 2): -52.5 mg/dL
% change in mean [LDL] from baseline (serum LDL; Week 4): −42.3%
% of subjects with [LDL] < 50 mg/dl (serum LDL; Week 4): 25.0%
% of subjects with [LDL] < 70 mg/dl (serum LDL; Week 4): 54.8%
% of subjects with [LDL] < 100 mg/dl (serum LDL; Week 4): 91.2%
Change in mean [LDL] from baseline (serum LDL; Week 4): -55.5 mg/dL
% change in mean [LDL] from baseline (serum LDL; Week 8): −43.8%
% of subjects with [LDL] < 50 mg/dl (serum LDL; Week 8): 22.7%
% of subjects with [LDL] < 70 mg/dl (serum LDL; Week 8): 59.9%
% of subjects with [LDL] < 100 mg/dl (serum LDL; Week 8): 91.4%
Change in mean [LDL] from baseline (serum LDL; Week 8): -56.6 mg/dL
% change in mean [LDL] from baseline (serum LDL; Week 16): −36.5%
% of subjects with [LDL] < 50 mg/dl (serum LDL; Week 16): 16.8%
% of subjects with [LDL] < 70 mg/dl (serum LDL; Week 16): 48.3%
% of subjects with [LDL] < 100 mg/dl (serum LDL; Week 16): 82.4%
Change in mean [LDL] from baseline (serum LDL; Week 16): -48.1 mg/dL
% change in mean [LDL] from baseline (serum LDL; Week 24): −38.2%
% of subjects with [LDL] < 50 mg/dl (serum LDL; Week 24): 14.1%
% of subjects with [LDL] < 70 mg/dl (serum LDL; Week 24): 50.0%
% of subjects with [LDL] < 100 mg/dl (serum LDL; Week 24): 86.5%
Change in mean [LDL] from baseline (serum LDL; Week 24): -50.0 mg/dL
percentage of subjects reaching target LDL levels of 50 mg/dl or less (serum LDL; final study visit): 16.0%
percentage of subjects reaching target LDL levels of 70 mg/dl or less (serum LDL; final study visit): 42.8%
% change in median [IL-6] from baseline (serum IL-6; ITT population, Week 2): −5.2%
% change in median [IL-6] from baseline (serum IL-6; ITT population, Week 4): −33.7%
% change in median [IL-6] from baseline (serum IL-6; ITT population, Week 8): −38.3%
% change in median [IL-6] from baseline (serum IL-6; diabetes subpopulation, Week 2): +3.5%
% change in median [IL-6] from baseline (serum IL-6; diabetes subpopulation, Week 4): −23.9%
% change in median [IL-6] from baseline (serum IL-6; diabetes subpopulation, Week 8): −40.4%
Death (# of events) (Human ACS Subjects; ITT population, 0-30 days): 4
MI (# of events) (Human ACS Subjects; ITT population, 0-30 days): 2
Stroke (# of events) (Human ACS Subjects; ITT population, 0-30 days): 0
Total MACE (# of events) (Human ACS Subjects; ITT population, 0-30 days): 12
UA (# of events) (Human ACS Subjects; ITT population, 0-30 days): 6
Death (# of events), cumulative (Human ACS Subjects; ITT population, 0-60 days): 4
MI (# of events), cumulative (Human ACS Subjects; ITT population, 0-60 days): 3
Stroke (# of events), cumulative (Human ACS Subjects; ITT population, 0-60 days): 0
Total MACE (# of events), cumulative (Human ACS Subjects; ITT population, 0-60 days): 14
UA (# of events), cumulative (Human ACS Subjects; ITT population, 0-60 days): 7
Death (# of events), cumulative (Human ACS Subjects; ITT population, 0-90 days): 5
MI (# of events), cumulative (Human ACS Subjects; ITT population, 0-90 days): 3
Stroke (# of events), cumulative (Human ACS Subjects; ITT population, 0-90 days): 1
Total MACE (# of events), cumulative (Human ACS Subjects; ITT population, 0-90 days): 17
UA (# of events), cumulative (Human ACS Subjects; ITT population, 0-90 days): 8
Death (# of events), cumulative (Human ACS Subjects; ITT population, 0-112 days): 5
MI (# of events), cumulative (Human ACS Subjects; ITT population, 0-112 days): 4
Stroke (# of events), cumulative (Human ACS Subjects; ITT population, 0-112 days): 1
Total MACE (# of events), cumulative (Human ACS Subjects; ITT population, 0-112 days): 19
UA (# of events), cumulative (Human ACS Subjects; ITT population, 0-112 days): 9
Death (# of events) (Human ACS Subjects; ITT population, 30-60 days): 0
MI (# of events) (Human ACS Subjects; ITT population, 30-60 days): 1
Stroke (# of events) (Human ACS Subjects; ITT population, 30-60 days): 0
Total MACE (# of events) (Human ACS Subjects; ITT population, 30-60 days): 2
UA (# of events) (Human ACS Subjects; ITT population, 30-60 days): 1
Death (# of events) (Human ACS Subjects; ITT population, 60-90 days): 1
MI (# of events) (Human ACS Subjects; ITT population, 60-90 days): 0
Stroke (# of events) (Human ACS Subjects; ITT population, 60-90 days): 1
Total MACE (# of events) (Human ACS Subjects; ITT population, 60-90 days): 3
UA (# of events) (Human ACS Subjects; ITT population, 60-90 days): 1
Death (# of events) (Human ACS Subjects; ITT population, 90-112 days): 0
MI (# of events) (Human ACS Subjects; ITT population, 90-112 days): 1
Stroke (# of events) (Human ACS Subjects; ITT population, 90-112 days): 0
Total MACE (# of events) (Human ACS Subjects; ITT population, 90-112 days): 2
UA (# of events) (Human ACS Subjects; ITT population, 90-112 days): 1
Death (% of subjects) (Human ACS Subjects; [3]): 1.6%
Death (number) (Human ACS Subjects; [3]): 5
MI (% of subjects) (Human ACS Subjects; [3]): 1.3%
MI (number) (Human ACS Subjects; [3]): 4
Revascularization ≧ 60 days (number) (Human ACS Subjects; [3]): 0
Stroke (% of subjects) (Human ACS Subjects; [3]): 0.3%
Stroke (number) (Human ACS Subjects; [3]): 1
Total MACEs (% of subjects) (Human ACS Subjects; [3]): 6.1%
Total MACEs (number) (Human ACS Subjects; [3]): 19
UA requiring hospitalization (% of subjects) (Human ACS Subjects; [3]): 2.9%
UA requiring hospitalization (number) (Human ACS Subjects; [3]): 9
% of subjects who experienced a MACE (Human ACS Subjects; days 0 to 30): 3.9%
% of subjects who experienced a MACE (Human ACS Subjects; days 0 to 60): 4.5%
% of subjects who experienced a MACE (Human ACS Subjects; days 0 to 90): 5.5%
% change in median [sPLA2] from baseline (serum sPLA2; Week 2): +5.4%
% change in median [sPLA2] from baseline (serum sPLA2; Week 4): −7.0%
% change in median [sPLA2] from baseline (serum sPLA2; Week 8): −15.6%
% change in median [sPLA2] from baseline (serum sPLA2; Week 16): −12.1%
% of subjects with mean [LDL] < 70 mg/dl and [hs-CRP] <1 mg/L (LDL and CRP levels; Baseline): 0.4%
% of subjects with mean [LDL] < 70 mg/dl and [hs-CRP] < 3 mg/L (LDL and CRP levels; Baseline): 1.4%
% of subjects with mean [LDL] < 70 mg/dl and [hs-CRP] <1 mg/L (LDL and CRP levels; Week 2): 5.6%
% of subjects with mean [LDL] < 70 mg/dl and [hs-CRP] < 3 mg/L (LDL and CRP levels; Week 2): 16.4%
% of subjects with mean [LDL] < 70 mg/dl and [hs-CRP] <1 mg/L (LDL and CRP levels; Week 4): 12.8%
% of subjects with mean [LDL] < 70 mg/dl and [hs-CRP] < 3 mg/L (LDL and CRP levels; Week 4): 30.5%
% of subjects with mean [LDL] < 70 mg/dl and [hs-CRP] <1 mg/L (LDL and CRP levels; Week 8): 17.5%
% of subjects with mean [LDL] < 70 mg/dl and [hs-CRP] < 3 mg/L (LDL and CRP levels; Week 8): 36.8%
% of subjects with mean [LDL] < 70 mg/dl and [hs-CRP] <1 mg/L (LDL and CRP levels; Week 16): 15.6%
% of subjects with mean [LDL] < 70 mg/dl and [hs-CRP] < 3 mg/L (LDL and CRP levels; Week 16): 32.9%
% of subjects with mean [LDL] < 70 mg/dl and [hs-CRP] <1 mg/L (LDL and CRP levels; Week 24): 15.9%
% of subjects with mean [LDL] < 70 mg/dl and [hs-CRP] < 3 mg/L (LDL and CRP levels; Week 24): 34.1%
absolute reduction in death, non-fatal MI, cardiac arrest with resuscitation, or worsening symptomatic myocardial ischemia [2]: 2.6%
relative reduction in death, non-fatal MI, cardiac arrest with resuscitation, or worsening symptomatic myocardial ischemia [2]: 16%
% change in median [hs-CRP] from baseline (serum hs-CRP; ITT population, Week 2): −20.0%
% change in median [hs-CRP] from baseline (serum hs-CRP; ITT population, Week 4): −63.5%
% change in median [hs-CRP] from baseline (serum hs-CRP; ITT population, Week 8): −71.0%
% change in median [hs-CRP] from baseline (serum hs-CRP; ITT population, Week 16): −71.8%
% change in log mean [hs-CRP] from baseline (serum hs-CRP; ITT population, Week 24): −77.0%
% change in median [hs-CRP] from baseline (serum hs-CRP; diabetes subpopulation, Week 2): −11.0%
% change in median [hs-CRP] from baseline (serum hs-CRP; diabetes subpopulation, Week 4): −51.1%
% change in median [hs-CRP] from baseline (serum hs-CRP; diabetes subpopulation, Week 8): −67.6%
% change in median [hs-CRP] from baseline (serum hs-CRP; diabetes subpopulation, Week 16): −72.4%
% change in median [hs-CRP] from baseline (serum hs-CRP; diabetes subpopulation, Week 24): −76.1%
